Consider nine compounds from EP4667483A1, “HUMAN TRANSFERRIN RECEPTOR-BINDING PEPTIDE” (JCR Pharmaceuticals Co., Ltd., priority 2023, dated 2024).

Numbered stars: 1 amine (or outer) side, 2 acyl side, 3 side chain; on linkers, the order of the positions; unused ones are H or OH. Bridge positions count the residues as written; N and C are the ends. Square brackets hold non-standard residues; d marks the D form. Peptide text beside a SMILES is read from it. * marks the point of attachment. Ala(imidazo(1,2-a)pyr3yl) = N[C@@H](Cc1cnc2ccccn12)C(=O)O; Trp(1-CH2COOH) = N[C@@H](Cc1cn(CC(=O)O)c2ccccc12)C(=O)O; NMePhe(4-COOH) = CN[C@@H](Cc1ccc(C(=O)O)cc1)C(=O)O; X1 = O=C([C@H](Cc1cccc(C(=O)[*:3])c1)N[*:1])[*:2]; X7 = CN([C@@H](Cc1cccc(C(=O)O)c1)C(=O)[*:2])[*:1]; X2 = O=C([C@H](Cc1cn(CCO)c2ccccc12)N[*:1])[*:2]; Phe(3-COOH) = N[C@@H](Cc1cccc(C(=O)O)c1)C(=O)O; Tyr(2,6-F2) = N[C@@H](Cc1c(F)cc(O)cc1F)C(=O)O; NMePhe(3-Cl) = CN[C@@H](Cc1cccc(Cl)c1)C(=O)O; Trp(1-Me) = Cn1cc(C[C@H](N)C(=O)O)c2ccccc21; 3Pal(6-NH2) = Nc1ccc(C[C@H](N)C(=O)O)cn1; NMeW = CN[C@@H](Cc1c[nH]c2ccccc12)C(=O)O; Lys(N3) = [N-]=[N+]=NCCCC[C@H](N)C(=O)O; NMeY = CN[C@@H](Cc1ccc(O)cc1)C(=O)O; Nva(3-Et) = CCC(CC)[C@H](N)C(=O)O; NMeF = CN[C@@H](Cc1ccccc1)C(=O)O; 4Pal = N[C@@H](Cc1ccncc1)C(=O)O; PEG4 = NCCOCCOCCOCCOCCC(=O)O; Carboxymethyl = O=C(O)C*

By Kd is commonly meant the concentration at which binding is half-saturated.

What all share (assay type): binding
Assay [1] deals with T1, human transferrin receptor (hTfR) (Homo sapiens, UniProt P02786). As to the kind of experiment: Evaluation of pH dependence (ratio of SPR koff or KD at pH 6.0 to pH 7.4). The settings on record: ratio of koff at pH 6.0 to pH 7.4. How it is done: The ratio of the calculated koff or KD values under pH 6.0 conditions to those under pH 7.4 conditions was calculated to check pH dependency.

Assay [2] deals with T1, human transferrin receptor (hTfR). The experiment in a line: SPR measurement under pH 7.4 conditions (Biacore T200, CM3 chip, hTfR captured by His Tag antibody). Conditions: SPR, pH 7.4; Table 1-3-2-2; read-out: hTfR SPR pH7.4 KD. (SPR reads the build-up and loss of mass on a sensor chip optically.)
The target is the same in assay [3]. As to the kind of experiment: SPR measurement under pH 6.0 conditions (Biacore T200, NTA chip, immobilized hTfR). Conditions: SPR, pH 6.0; Table 1-3-2-2; read-out: hTfR SPR pH6.0 KD.

T1 sequence (P02786 whole entry): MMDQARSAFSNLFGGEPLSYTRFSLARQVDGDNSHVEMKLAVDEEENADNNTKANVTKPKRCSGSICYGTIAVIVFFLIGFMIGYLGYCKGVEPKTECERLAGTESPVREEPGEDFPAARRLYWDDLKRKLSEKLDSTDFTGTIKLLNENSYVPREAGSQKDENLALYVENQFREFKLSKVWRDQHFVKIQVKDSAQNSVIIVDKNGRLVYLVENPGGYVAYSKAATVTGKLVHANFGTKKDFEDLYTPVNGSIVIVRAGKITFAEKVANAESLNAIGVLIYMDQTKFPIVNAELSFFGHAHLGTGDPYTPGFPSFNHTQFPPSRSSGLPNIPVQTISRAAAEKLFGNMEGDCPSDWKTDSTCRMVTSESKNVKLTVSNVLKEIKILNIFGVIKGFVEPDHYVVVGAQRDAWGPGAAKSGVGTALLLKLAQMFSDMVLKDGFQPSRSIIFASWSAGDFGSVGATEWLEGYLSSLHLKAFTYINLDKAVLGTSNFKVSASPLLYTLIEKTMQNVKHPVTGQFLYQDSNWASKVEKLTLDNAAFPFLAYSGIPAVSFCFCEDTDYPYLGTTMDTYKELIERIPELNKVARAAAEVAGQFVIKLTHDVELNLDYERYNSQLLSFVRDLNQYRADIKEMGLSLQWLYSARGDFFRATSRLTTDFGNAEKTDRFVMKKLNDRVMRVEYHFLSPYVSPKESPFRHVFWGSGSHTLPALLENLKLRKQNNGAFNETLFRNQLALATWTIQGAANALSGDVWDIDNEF

`CC[C@H](C)[C@@H]1NC(=O)[C@H](Cc2ccc(OCC(=O)O)cc2)NC(=O)[C@H](Cc2ccc(O)cc2)NC(=O)[C@H](CC(N)=O)NC(=O)[C@H](Cc2cn(CCO)c3ccccc23)NC(=O)[C@H](C(C)C)NC(=O)[C@H](Cc2cccc(Cl)c2)N(C)C(=O)[C@H]([C@@H](C)O)NC(=O)[C@H](C)NC(=O)CSC[C@@H](C(=O)NCCOCCOCCOCCOCCC(N)=O)NC(=O)[C@H](Cc2ccc(O)cc2)N(C)C(=O)[C@H](Cc2cccc(C(=O)O)c2)NC(=O)[C@H](CCCNC(=N)N)NC(=O)[C@H](CCC(N)=O)NC(=O)[C@H]([C@@H](C)CC)NC1=O` [compound 77] ({CH2CO}-AT[NMePhe(3-Cl)]V[X2]NYY(Carboxymethyl)IIQR[Phe(3-COOH)][NMeY]C[PEG4]-NH2; thioether N-15): the “dependency koff pH6.0/7.4” value in assay [1] came to 4.46.
Regarding `CC[C@H](C)[C@@H]1NC(=O)[C@H](Cc2ccc(OCC(=O)O)cc2)NC(=O)[C@H](Cc2c(F)cc(O)cc2F)NC(=O)[C@H](CC(N)=O)NC(=O)[C@H](Cc2cn(CC(=O)O)c3ccccc23)NC(=O)[C@H](C(C)C)NC(=O)[C@H](Cc2cccc(Cl)c2)N(C)C(=O)[C@H](C(C)C)NC(=O)[C@H](C)NC(=O)CSC[C@@H](C(=O)NCCOCCOCCOCCOCCC(N)=O)NC(=O)[C@H](Cc2ccc(O)cc2)N(C)C(=O)[C@H](Cc2cccc(C(=O)O)c2)NC(=O)[C@H](CCCNC(=N)N)NC(=O)[C@H](CCC(N)=O)NC(=O)[C@H]([C@@H](C)CC)NC1=O` [compound 78] ({CH2CO}-AV[NMePhe(3-Cl)]V[Trp(1-CH2COOH)]N[Tyr(2,6-F2)]Y(Carboxymethyl)IIQR[Phe(3-COOH)][NMeY]C[PEG4]-NH2; thioether N-15), the “dependency koff pH6.0/7.4” value in assay [1] is given as 4.38.
As for `CC[C@H](C)[C@@H]1NC(=O)[C@H](Cc2ccc(OCC(=O)O)cc2)NC(=O)[C@H](Cc2ccc(O)cc2)NC(=O)[C@H](CC(N)=O)NC(=O)[C@H](Cc2cn(C)c3ccccc23)NC(=O)[C@H](C(C)C)NC(=O)[C@H](Cc2cccc(Cl)c2)N(C)C(=O)[C@H](C(C)C)NC(=O)[C@H](C)NC(=O)CSC[C@@H](C(=O)NCCOCCOCCOCCOCCC(N)=O)NC(=O)[C@H](Cc2ccc(O)cc2)N(C)C(=O)[C@H](Cc2cccc(C(=O)O)c2)NC(=O)[C@H](CCCNC(=N)N)NC(=O)[C@H](CCC(N)=O)NC(=O)[C@H]([C@@H](C)CC)NC1=O` [compound 79] ({CH2CO}-AV[NMePhe(3-Cl)]V[Trp(1-Me)]NYY(Carboxymethyl)IIQR[Phe(3-COOH)][NMeY]C[PEG4]-NH2; thioether N-15), the “dependency koff pH6.0/7.4” value in assay [1] worked out at 5.31.
Same read-out and setting: to `CC[C@H](C)[C@@H]1NC(=O)[C@H](Cc2ccc(OC)cc2)NC(=O)[C@H](Cc2ccc(O)cc2)NC(=O)[C@H](CC(N)=O)NC(=O)[C@H](Cc2c[nH]c3ccccc23)NC(=O)[C@H](C(C)C)NC(=O)[C@H](Cc2cccc(Cl)c2)N(C)C(=O)[C@H](C(C)C)NC(=O)[C@H](C)NC(=O)CSC[C@@H](C(=O)NCCOCCOCCOCCOCCC(N)=O)NC(=O)[C@H](Cc2ccc(C(=O)O)cc2)N(C)C(=O)[C@H](Cc2cccc(C(=O)O)c2)NC(=O)[C@H](CCCNC(=N)N)NC(=O)[C@H](CCC(N)=O)NC(=O)[C@H]([C@@H](C)CC)NC1=O` [compound 80] ({CH2CO}-AV[NMePhe(3-Cl)]VWNYY(Me)IIQR[Phe(3-COOH)][NMePhe(4-COOH)]C[PEG4]-NH2; thioether N-15) belongs 22.20; to `CC[C@H](C)[C@@H]1NC(=O)[C@H](Cc2ccc(OC)cc2)NC(=O)[C@H](Cc2ccc(O)cc2)NC(=O)[C@H](CC(N)=O)NC(=O)[C@H](Cc2c[nH]c3ccccc23)NC(=O)[C@H](C(C)C)NC(=O)[C@H](Cc2cccc(Cl)c2)N(C)C(=O)[C@H](C(C)C)NC(=O)[C@H](C)NC(=O)CSC[C@@H](C(=O)NCCOCCOCCOCCOCCC(N)=O)NC(=O)[C@H](Cc2cccc(C(=O)O)c2)N(C)C(=O)[C@H](Cc2cccc(C(=O)O)c2)NC(=O)[C@H](CCCNC(=N)N)NC(=O)[C@H](CCC(N)=O)NC(=O)[C@H]([C@@H](C)CC)NC1=O` [compound 81] ({CH2CO}-AV[NMePhe(3-Cl)]VWNYY(Me)IIQR[Phe(3-COOH)][X7]C[PEG4]-NH2; thioether N-15), 13.49.
Take `CC[C@H](C)[C@@H]1NC(=O)[C@H](Cc2ccc(OC)cc2)NC(=O)[C@H](Cc2ccc(N)nc2)NC(=O)[C@H](CC(N)=O)NC(=O)[C@H](Cc2c[nH]c3ncccc23)NC(=O)[C@H](C(C)C)NC(=O)[C@H](Cc2cccc(Cl)c2)N(C)C(=O)[C@H](C(C)C)NC(=O)[C@H](C)NC(=O)CSC[C@@H](C(=O)NCC(=O)NCC(=O)NCC(=O)NCC(=O)N[C@@H](CO)C(=O)N[C@@H](CO)C(=O)N[C@@H](CCCCN=[N+]=[N-])C(N)=O)NC(=O)[C@H](Cc2ccc(O)cc2)N(C)C(=O)[C@H](Cc2ccncc2)NC(=O)[C@H](CCCCN2CCOCC2)NC(=O)[C@H](CCCCN2CCOCC2)NC(=O)[C@H]([C@@H](C)CC)NC1=O` [compound 192]: the figures for the Kd in assay [2] and in assay [3] were 1.49 nM and 10.5 nM, respectively.
Regarding `CCC(CC)[C@@H]1NC(=O)[C@H](Cc2ccc(O)cc2)NC(=O)[C@H](Cc2ccc(O)cc2)NC(=O)[C@H](CC(N)=O)NC(=O)[C@H](Cc2c[nH]c3ccccc23)N(C)C(=O)[C@H](C(C)C)NC(=O)[C@H](Cc2ccccc2)N(C)C(=O)[C@H](C(C)C)NC(=O)[C@H](C)NC(=O)CSC[C@@H](C(=O)NCC(=O)N[C@@H](CCCCN=[N+]=[N-])C(N)=O)NC(=O)[C@H](Cc2ccc(C(=O)O)cc2)N(C)C(=O)[C@H](Cc2cccc(C(=O)NCCOCCOCCOCCOCCC(=O)O)c2)NC(=O)[C@H](CCCNC(=N)N)NC(=O)[C@H](CCCCN)NC(=O)[C@H]([C@@H](C)CC)NC1=O` [compound 194] ({CH2CO}-AV[NMeF]V[NMeW]NYY[Nva(3-Et)]IKR[X1](PEG4)[NMePhe(4-COOH)]CG[Lys(N3)]-NH2; thioether N-15), the figures for the Kd in assay [2] and in assay [3] were 4.62 nM and 14.9 nM, respectively.
The matching figures for `CC[C@H](C)[C@@H]1NC(=O)[C@H](Cc2ccc(O)cc2)NC(=O)[C@H](Cc2ccc(N)nc2)NC(=O)[C@H](CC(N)=O)NC(=O)[C@H](Cc2c[nH]c3ccccc23)N(C)C(=O)[C@H](C(C)C)NC(=O)[C@H](Cc2ccccc2)N(C)C(=O)[C@H](C(C)C)NC(=O)[C@H](C)NC(=O)CSC[C@@H](C(=O)NCC(=O)N[C@@H](CCCCN=[N+]=[N-])C(N)=O)NC(=O)[C@H](Cc2ccc(C(=O)O)cc2)N(C)C(=O)[C@H](Cc2ccc(O)cc2)NC(=O)[C@H](CCCNC(=N)N)NC(=O)[C@H](CCCCN)NC(=O)[C@H]([C@@H](C)CC)NC1=O` [compound 196] ({CH2CO}-AV[NMeF]V[NMeW]N[3Pal(6-NH2)]YIIKRY[NMePhe(4-COOH)]CG[Lys(N3)]-NH2; thioether N-15): 2.94 nM and 13.9 nM.
Take `CC[C@H](C)[C@@H]1NC(=O)[C@H](Cc2ccc(OC)cc2)NC(=O)[C@H](Cc2ccc(N)nc2)NC(=O)[C@H](CC(N)=O)NC(=O)[C@H](Cc2cnc3ccccn23)NC(=O)[C@H](C(C)C)NC(=O)[C@H](Cc2cccc(Cl)c2)N(C)C(=O)[C@H](C(C)C)NC(=O)[C@H](C)NC(=O)CSC[C@@H](C(=O)NCC(=O)N[C@@H](CCCCN=[N+]=[N-])C(N)=O)NC(=O)[C@H](Cc2ccc(O)cc2)N(C)C(=O)[C@H](Cc2ccncc2)NC(=O)[C@H](CCCNC(=N)N)NC(=O)[C@H](CCCNC(=N)N)NC(=O)[C@H]([C@@H](C)CC)NC1=O` [compound 197] ({CH2CO}-AV[NMePhe(3-Cl)]V[Ala(imidazo(1,2-a)pyr3yl)]N[3Pal(6-NH2)]Y(Me)IIRR[4Pal][NMeY]CG[Lys(N3)]-NH2; thioether N-15): the figures for the dissociation constant (Kd) in assay [2] and in assay [3] were 5.09 nM and 43.9 nM, respectively.
